Reference: PubChem BioAssay (NCI)
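Dose response: 5 concentrations. Exposure: 48 h. Format: 96-well plates. Endpoint: linear interpolation; highest concentration if not reached. The concentration for full growth arrest is given as TGI.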

How the values were obtained:
Assay in all cases: inhibition of tumour cell growth, NCI panel, 48 h
UACC-62 melanoma = system: UACC-62 melanoma
MALME-3M melanoma = system: MALME-3M melanoma
CCRF-CEM leukemia = system: CCRF-CEM leukemia
K-562 leukemia = system: K-562 leukemia
HOP-62 NSCLC = system: HOP-62 NSCLC
MOLT-4 leukemia = system: MOLT-4 leukemia
ACHN renal = system: ACHN renal
HT29 colon = system: HT29 colon
OVCAR-8 ovarian = system: OVCAR-8 ovarian
HOP-92 NSCLC = system: HOP-92 NSCLC
HL-60(TB) leukemia = system: HL-60(TB) leukemia
LOX IMVI melanoma = system: LOX IMVI melanoma
MDA-N = system: MDA-N
U251 CNS = system: U251 CNS
SK-MEL-2 melanoma = system: SK-MEL-2 melanoma
RPMI-8226 leukemia = system: RPMI-8226 leukemia
KM12 colon = system: KM12 colon
OVCAR-5 ovarian = system: OVCAR-5 ovarian
OVCAR-4 ovarian = system: OVCAR-4 ovarian
BT-549 breast = system: BT-549 breast
NCI-H23 lung = system: NCI-H23 lung
TK-10 renal = system: TK-10 renal
786-0 renal = system: 786-0 renal
NCI-H226 lung = system: NCI-H226 lung
SK-MEL-5 melanoma = system: SK-MEL-5 melanoma
HCT-116 colon = system: HCT-116 colon
DU-145 prostate = system: DU-145 prostate
A498 renal = system: A498 renal
COLO 205 colon = system: COLO 205 colon
EKVX NSCLC = system: EKVX NSCLC
IGROV1 ovarian = system: IGROV1 ovarian
UO-31 renal = system: UO-31 renal
M14 melanoma = system: M14 melanoma
SK-MEL-28 melanoma = system: SK-MEL-28 melanoma
SF-295 CNS = system: SF-295 CNS
SK-OV-3 ovarian = system: SK-OV-3 ovarian
HCT-15 colon = system: HCT-15 colon
SR leukemia = system: SR leukemia
SNB-75 CNS = system: SNB-75 CNS
T-47D breast = system: T-47D breast
SW-620 colon = system: SW-620 colon
PC-3 prostate = system: PC-3 prostate
SN12C renal = system: SN12C renal
MDA-MB-435 = system: MDA-MB-435
MDA-MB-231 breast = system: MDA-MB-231 breast
HCC-2998 colon = system: HCC-2998 colon
NCI-H522 lung = system: NCI-H522 lung
SNB-19 CNS = system: SNB-19 CNS
MCF7 breast = system: MCF7 breast
CAKI-1 renal = system: CAKI-1 renal
NCI/ADR-RES ovarian = system: NCI/ADR-RES ovarian
RXF 393 renal = system: RXF 393 renal
SF-539 CNS = system: SF-539 CNS
A549 NSCLC = system: A549 NSCLC
UACC-257 melanoma = system: UACC-257 melanoma
OVCAR-3 ovarian = system: OVCAR-3 ovarian
NCI-H460 lung = system: NCI-H460 lung
SF-268 CNS = system: SF-268 CNS
HS 578T breast = system: HS 578T breast

Compound: COc1cc(/C=C2\C(=O)N(c3cc(Cl)ccc3Cl)C(c3ccccc3)S2(=O)=O)cc(OC)c1OC (centres undefined)
- TGI (UACC-62 melanoma): > 100 µM
- TGI (MALME-3M melanoma): > 100 µM
- TGI (CCRF-CEM leukemia): > 100 µM
- TGI (K-562 leukemia): > 100 µM
- TGI (HOP-62 NSCLC): > 100 µM
- TGI (MOLT-4 leukemia): 99.4 µM
- TGI (ACHN renal): > 100 µM
- TGI (HT29 colon): > 100 µM
- TGI (OVCAR-8 ovarian): > 100 µM
- TGI (HOP-92 NSCLC): > 100 µM
- TGI (HL-60(TB) leukemia): 51.7 µM
- TGI (LOX IMVI melanoma): > 100 µM
- TGI (MDA-N): 66.1 µM
- TGI (U251 CNS): > 100 µM
- TGI (SK-MEL-2 melanoma): > 100 µM
- TGI (RPMI-8226 leukemia): > 100 µM
- TGI (KM12 colon): > 100 µM
- TGI (OVCAR-5 ovarian): > 100 µM
- TGI (OVCAR-4 ovarian): > 100 µM
- TGI (BT-549 breast): > 100 µM
- TGI (NCI-H23 lung): > 100 µM
- TGI (TK-10 renal): > 100 µM
- TGI (786-0 renal): > 100 µM
- TGI (NCI-H226 lung): > 100 µM
- TGI (SK-MEL-5 melanoma): > 100 µM
- TGI (HCT-116 colon): > 100 µM
- TGI (DU-145 prostate): > 100 µM
- TGI (A498 renal): > 100 µM
- TGI (COLO 205 colon): > 100 µM
- TGI (EKVX NSCLC): > 100 µM
- TGI (IGROV1 ovarian): > 100 µM
- TGI (UO-31 renal): > 100 µM
- TGI (M14 melanoma): > 100 µM
- TGI (SK-MEL-28 melanoma): > 100 µM
- TGI (SF-295 CNS): > 100 µM
- TGI (SK-OV-3 ovarian): > 100 µM
- TGI (HCT-15 colon): > 100 µM
- TGI (SR leukemia): > 100 µM
- TGI (SNB-75 CNS): > 100 µM
- TGI (T-47D breast): > 100 µM
- TGI (SW-620 colon): > 100 µM
- TGI (PC-3 prostate): > 100 µM
- TGI (SN12C renal): > 100 µM
- TGI (MDA-MB-435): 96.2 µM
- TGI (MDA-MB-231 breast): > 100 µM
- TGI (HCC-2998 colon): > 100 µM
- TGI (NCI-H522 lung): > 100 µM
- TGI (SNB-19 CNS): > 100 µM
- TGI (MCF7 breast): > 100 µM
- TGI (CAKI-1 renal): > 100 µM
- TGI (NCI/ADR-RES ovarian): > 100 µM
- TGI (RXF 393 renal): > 100 µM
- TGI (SF-539 CNS): > 100 µM
- TGI (A549 NSCLC): > 100 µM
- TGI (UACC-257 melanoma): > 100 µM
- TGI (OVCAR-3 ovarian): > 100 µM
- TGI (NCI-H460 lung): > 100 µM

Compound: Cc1nn(C2OC(CO)C(O)C(F)C2O)c(=O)[nH]c1=O (centres undefined)
- TGI (UACC-62 melanoma): > 100 µM
- TGI (MALME-3M melanoma): > 100 µM
- TGI (CCRF-CEM leukemia): > 100 µM
- TGI (K-562 leukemia): > 100 µM
- TGI (MOLT-4 leukemia): > 100 µM
- TGI (ACHN renal): > 100 µM
- TGI (HT29 colon): > 100 µM
- TGI (OVCAR-8 ovarian): > 100 µM
- TGI (HOP-92 NSCLC): > 100 µM
- TGI (HL-60(TB) leukemia): > 100 µM
- TGI (LOX IMVI melanoma): > 100 µM
- TGI (MDA-N): > 100 µM
- TGI (U251 CNS): > 100 µM
- TGI (SK-MEL-2 melanoma): > 100 µM
- TGI (RPMI-8226 leukemia): > 100 µM
- TGI (SF-268 CNS): > 100 µM
- TGI (OVCAR-5 ovarian): > 100 µM
- TGI (OVCAR-4 ovarian): > 100 µM
- TGI (BT-549 breast): > 100 µM
- TGI (NCI-H23 lung): > 100 µM
- TGI (TK-10 renal): > 100 µM
- TGI (HS 578T breast): > 100 µM
- TGI (786-0 renal): > 100 µM
- TGI (NCI-H226 lung): > 100 µM
- TGI (SK-MEL-5 melanoma): > 100 µM
- TGI (HCT-116 colon): > 100 µM
- TGI (DU-145 prostate): > 100 µM
- TGI (A498 renal): > 100 µM
- TGI (COLO 205 colon): > 100 µM
- TGI (UO-31 renal): > 100 µM
- TGI (M14 melanoma): > 100 µM
- TGI (SK-MEL-28 melanoma): > 100 µM
- TGI (SF-295 CNS): > 100 µM
- TGI (SK-OV-3 ovarian): > 100 µM
- TGI (HCT-15 colon): > 100 µM
- TGI (T-47D breast): > 100 µM
- TGI (SW-620 colon): > 100 µM
- TGI (PC-3 prostate): > 100 µM
- TGI (SN12C renal): > 100 µM
- TGI (MDA-MB-435): > 100 µM
- TGI (MDA-MB-231 breast): > 100 µM
- TGI (HCC-2998 colon): > 100 µM
- TGI (NCI-H522 lung): > 100 µM
- TGI (SNB-19 CNS): > 100 µM
- TGI (MCF7 breast): > 100 µM
- TGI (CAKI-1 renal): > 100 µM
- TGI (NCI/ADR-RES ovarian): > 100 µM
- TGI (SF-539 CNS): > 100 µM
- TGI (A549 NSCLC): > 100 µM
- TGI (UACC-257 melanoma): > 100 µM
- TGI (OVCAR-3 ovarian): > 100 µM
- TGI (NCI-H460 lung): > 100 µM
